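In this assay, cells in 96-well plates receive the compound at five concentrations for 48 hours. Endpoints are linearly interpolated between the surrounding concentrations. GI50 marks 50% less growth.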 Active and inactive are the calls of the source. No stated cut-off is given here; in the data, active = GI50 up to about 1.1 µM and inactive = higher.
How the values were obtained:
Assay in all cases: NCI anticancer screen, dose series, 48 h
SNB-19 = tested on: SNB-19
HCT-15 = tested on: HCT-15
T47D = tested on: T47D
SN12C = tested on: SN12C
SK-MEL-28 = tested on: SK-MEL-28
RXF 393 = tested on: RXF 393
HT-29 = tested on: HT-29
U-251 = tested on: U-251
786-0 = tested on: 786-0
SK-OV-3 = tested on: SK-OV-3
NCI-H460 = tested on: NCI-H460
Hs-578T = tested on: Hs-578T
NCI-H226 = tested on: NCI-H226
DU-145 = tested on: DU-145
M14 = tested on: M14
HCT-116 = tested on: HCT-116
MOLT-4 = tested on: MOLT-4
K562 = tested on: K562
MDA-MB-231 = tested on: MDA-MB-231

| Structure (SMILES) | GI50 (SNB-19) | GI50 (HCT-15) | GI50 (T47D) | GI50 (SN12C) | GI50 (SK-MEL-28) | GI50 (RXF 393) | GI50 (HT-29) | GI50 (U-251) | GI50 (786-0) | GI50 (SK-OV-3) | GI50 (NCI-H460) | GI50 (Hs-578T) | GI50 (NCI-H226) | GI50 (DU-145) | GI50 (M14) | GI50 (HCT-116) | GI50 (MOLT-4) | GI50 (K562) | GI50 (MDA-MB-231) |
| --- | --- | --- | --- | --- | --- | --- | --- | --- | --- | --- | --- | --- | --- | --- | --- | --- | --- | --- | --- |
| CC(=O)Oc1cc2c[n+](C)c3c4cc(OC(C)=O)c(OC(C)=O)cc4ccc3c2cc1OC(C)=O | 2.3 µM (inactive) | 2.69 µM | 1.87 µM (inactive) | 3.43 µM (inactive) | > 100 µM (inactive) | 0.168 µM (active) | 2.72 µM (inactive) | 1.72 µM (inactive) | 1.59 µM (inactive) | 4.32 µM (inactive) | 4.93 µM (inactive) | > 100 µM (inactive) | 1.54 µM (inactive) | 3.78 µM (inactive) | 4.38 µM (inactive) | 2.3 µM (inactive) | – | – | – |
| CC(C)=C/C=C1/CS(=O)(=O)C=C1C | > 100 µM (inactive) | 47.4 µM | > 100 µM (inactive) | > 100 µM (inactive) | > 100 µM (inactive) | > 100 µM (inactive) | > 100 µM (inactive) | > 100 µM (inactive) | > 100 µM (inactive) | > 100 µM (inactive) | – | – | > 100 µM (inactive) | > 100 µM (inactive) | > 100 µM (inactive) | > 100 µM (inactive) | > 100 µM (inactive) | > 100 µM (inactive) | > 100 µM (inactive) |
| Cc1ccc(/C=N/Nc2ncccn2)s1 | > 100 µM (inactive) | > 100 µM | > 100 µM (inactive) | > 100 µM (inactive) | > 100 µM (inactive) | > 100 µM (inactive) | > 100 µM (inactive) | > 100 µM (inactive) | > 100 µM (inactive) | > 100 µM (inactive) | – | > 100 µM (inactive) | > 100 µM (inactive) | – | > 100 µM (inactive) | > 100 µM (inactive) | – | > 10 µM (inactive) | > 100 µM (inactive) |
| FC1=C2C3CCC(C3)C2C1(F)F (stereo not drawn) | > 100 µM (inactive) | > 100 µM | > 100 µM (inactive) | > 100 µM (inactive) | > 100 µM (inactive) | > 100 µM (inactive) | > 100 µM (inactive) | > 100 µM (inactive) | > 100 µM (inactive) | > 100 µM (inactive) | > 100 µM (inactive) | – | > 100 µM (inactive) | > 100 µM (inactive) | > 100 µM (inactive) | > 100 µM (inactive) | > 100 µM (inactive) | > 100 µM (inactive) | > 100 µM (inactive) |
| [N-]=[N+]=NI1OC(C(F)(F)F)(C(F)(F)F)c2ccccc21 | > 100 µM (inactive) | 8.18 µM | 12.1 µM (inactive) | 14.6 µM (inactive) | 13.9 µM (inactive) | 14 µM (inactive) | 17.3 µM (inactive) | 18.1 µM (inactive) | 15.5 µM (inactive) | 21.5 µM (inactive) | – | 12.6 µM (inactive) | 18.4 µM (inactive) | 18 µM (inactive) | 31.2 µM (inactive) | 17.3 µM (inactive) | 14.7 µM (inactive) | 11.5 µM (inactive) | 15.1 µM (inactive) |
| CN(C)c1nc(NN)c2c(-c3ccccc3)c(-c3ccccc3)oc2n1 | > 100 µM (inactive) | > 100 µM | > 100 µM (inactive) | > 100 µM (inactive) | > 100 µM (inactive) | > 100 µM (inactive) | 98.4 µM (inactive) | > 100 µM (inactive) | > 100 µM (inactive) | > 100 µM (inactive) | – | 45.8 µM (inactive) | > 100 µM (inactive) | > 100 µM (inactive) | > 100 µM (inactive) | > 100 µM (inactive) | > 100 µM (inactive) | 49 µM (inactive) | > 100 µM (inactive) |
